{
  "source": "the kinase profiling compilation of Christmann-Franck et al. (2016)",
  "assay_in_all_cases": "KINOMEscan competition binding",
  "conditions_in_all_cases": "compound 10.0 µM",
  "key": {"BRSK1 (human)": {"target": "BRSK1 (human) (UniProt Q8TDC3)"}, "CAMK1G (human)": {"target": "CAMK1G (human) (UniProt Q96NX5)"}, "CDK9 (human)": {"target": "CDK9 (human) (UniProt P50750)"}, "PAK4 (human)": {"target": "PAK4 (human) (UniProt O96013)"}, "AURKC (human)": {"target": "AURKC (human) (UniProt Q9UQB9)", "sequence (Q9UQB9 whole entry, looked up)": "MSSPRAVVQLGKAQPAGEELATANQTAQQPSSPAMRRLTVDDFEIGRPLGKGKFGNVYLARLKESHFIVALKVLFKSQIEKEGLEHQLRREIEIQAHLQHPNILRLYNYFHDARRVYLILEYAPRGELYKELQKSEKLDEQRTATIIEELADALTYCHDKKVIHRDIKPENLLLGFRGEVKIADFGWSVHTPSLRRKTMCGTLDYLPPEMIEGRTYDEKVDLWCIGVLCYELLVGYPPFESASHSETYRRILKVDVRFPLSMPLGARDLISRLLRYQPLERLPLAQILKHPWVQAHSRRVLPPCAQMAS"}, "NEK9 (human)": {"target": "NEK9 (human) (UniProt Q8TD19)"}, "FGFR1 (human)": {"target": "FGFR1 (human) (UniProt P11362)"}, "PRKD1 (human)": {"target": "PRKD1 (human) (UniProt Q15139)"}, "MAPKAPK2 (human)": {"target": "MAPKAPK2 (human) (UniProt P49137)"}, "PHKG2 (human)": {"target": "PHKG2 (human) (UniProt P15735)"}, "[1]": {"tested_on": "RET (human), P07949 [V804L]"}, "MAPK1 (human)": {"target": "MAPK1 (human) (UniProt P28482)"}, "KDR (human)": {"target": "KDR (human) (UniProt P35968)"}, "CSNK1A1L (human)": {"target": "CSNK1A1L (human) (UniProt Q8N752)", "sequence (Q8N752 whole entry, looked up)": "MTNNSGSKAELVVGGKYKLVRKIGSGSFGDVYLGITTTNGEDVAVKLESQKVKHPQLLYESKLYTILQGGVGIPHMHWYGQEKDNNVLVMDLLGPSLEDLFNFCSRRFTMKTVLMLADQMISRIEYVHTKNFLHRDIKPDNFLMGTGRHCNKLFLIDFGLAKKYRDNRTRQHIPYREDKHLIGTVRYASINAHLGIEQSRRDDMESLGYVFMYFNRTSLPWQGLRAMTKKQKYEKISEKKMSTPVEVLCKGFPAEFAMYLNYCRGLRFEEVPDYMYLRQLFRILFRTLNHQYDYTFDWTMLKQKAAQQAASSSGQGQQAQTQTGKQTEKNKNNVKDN"}, "ULK3 (human)": {"target": "ULK3 (human) (UniProt Q6PHR2)"}, "MAP3K3 (human)": {"target": "MAP3K3 (human) (UniProt Q99759)"}, "STK33 (human)": {"target": "STK33 (human) (UniProt Q9BYT3)"}, "MAPK7 (human)": {"target": "MAPK7 (human) (UniProt Q13164)"}, "[2]": {"tested_on": "EGFR (human), P00533 [G719S]"}, "[3]": {"tested_on": "EGFR (human), P00533 [A750P; 747-749 del]"}, "PRKACA (human)": {"target": "PRKACA (human) (UniProt P17612)"}, "ERBB4 (human)": {"target": "ERBB4 (human) (UniProt Q15303)", "sequence (Q15303 whole entry, looked up)": "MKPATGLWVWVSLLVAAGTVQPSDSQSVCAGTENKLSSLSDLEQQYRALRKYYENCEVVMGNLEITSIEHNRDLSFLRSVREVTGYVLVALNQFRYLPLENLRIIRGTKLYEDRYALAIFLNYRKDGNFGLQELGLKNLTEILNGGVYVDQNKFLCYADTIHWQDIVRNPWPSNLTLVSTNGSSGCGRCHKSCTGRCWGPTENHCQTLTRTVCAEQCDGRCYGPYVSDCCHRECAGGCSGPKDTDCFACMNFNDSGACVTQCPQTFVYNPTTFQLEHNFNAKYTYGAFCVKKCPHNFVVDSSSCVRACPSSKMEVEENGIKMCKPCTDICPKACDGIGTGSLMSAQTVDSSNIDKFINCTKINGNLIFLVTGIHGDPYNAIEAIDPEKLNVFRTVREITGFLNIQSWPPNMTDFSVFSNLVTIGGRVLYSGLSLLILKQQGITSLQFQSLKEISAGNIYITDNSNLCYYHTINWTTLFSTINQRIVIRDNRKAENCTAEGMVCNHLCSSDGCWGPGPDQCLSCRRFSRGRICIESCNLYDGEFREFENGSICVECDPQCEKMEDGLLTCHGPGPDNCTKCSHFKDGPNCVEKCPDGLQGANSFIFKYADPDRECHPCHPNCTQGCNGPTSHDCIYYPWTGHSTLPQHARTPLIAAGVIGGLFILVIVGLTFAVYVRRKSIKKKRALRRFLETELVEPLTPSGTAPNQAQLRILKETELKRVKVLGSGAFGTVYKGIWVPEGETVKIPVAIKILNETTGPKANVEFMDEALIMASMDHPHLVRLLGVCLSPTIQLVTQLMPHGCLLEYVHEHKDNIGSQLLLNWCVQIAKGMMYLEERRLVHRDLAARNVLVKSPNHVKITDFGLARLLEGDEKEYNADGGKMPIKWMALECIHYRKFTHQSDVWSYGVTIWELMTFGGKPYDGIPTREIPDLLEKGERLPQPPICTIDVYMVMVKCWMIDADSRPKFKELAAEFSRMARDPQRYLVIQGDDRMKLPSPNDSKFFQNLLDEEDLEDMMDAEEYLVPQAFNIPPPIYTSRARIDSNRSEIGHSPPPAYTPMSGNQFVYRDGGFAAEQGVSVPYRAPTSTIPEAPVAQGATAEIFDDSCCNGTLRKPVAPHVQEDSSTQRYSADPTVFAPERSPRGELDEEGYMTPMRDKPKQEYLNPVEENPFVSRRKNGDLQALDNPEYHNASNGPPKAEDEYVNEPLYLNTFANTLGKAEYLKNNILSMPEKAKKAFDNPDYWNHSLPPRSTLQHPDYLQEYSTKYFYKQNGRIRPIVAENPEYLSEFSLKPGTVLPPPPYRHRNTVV"}, "IRAK4 (human)": {"target": "IRAK4 (human) (UniProt Q9NWZ3)", "sequence (Q9NWZ3 whole entry, looked up)": "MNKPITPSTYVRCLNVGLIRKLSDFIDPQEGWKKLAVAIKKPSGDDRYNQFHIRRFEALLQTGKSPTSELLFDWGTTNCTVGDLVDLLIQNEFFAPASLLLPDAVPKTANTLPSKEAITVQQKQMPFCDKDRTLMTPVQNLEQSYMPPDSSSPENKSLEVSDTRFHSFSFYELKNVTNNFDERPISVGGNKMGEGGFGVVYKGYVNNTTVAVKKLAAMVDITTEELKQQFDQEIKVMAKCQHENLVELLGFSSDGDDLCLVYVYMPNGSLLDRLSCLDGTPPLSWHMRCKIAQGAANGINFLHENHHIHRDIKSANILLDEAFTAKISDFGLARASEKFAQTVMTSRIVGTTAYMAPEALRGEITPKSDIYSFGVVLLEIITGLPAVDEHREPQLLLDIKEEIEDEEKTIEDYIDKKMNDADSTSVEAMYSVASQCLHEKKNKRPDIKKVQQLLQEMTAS"}, "RIOK3 (human)": {"target": "RIOK3 (human) (UniProt O14730)"}, "PRKCH (human)": {"target": "PRKCH (human) (UniProt P24723)"}, "[4]": {"tested_on": "FLT3 (human), P36888 [R834Q]"}, "PRKG2 (human)": {"target": "PRKG2 (human) (UniProt Q13237)"}, "ROCK1 (human)": {"target": "ROCK1 (human) (UniProt Q13464)"}, "ERBB2 (human)": {"target": "ERBB2 (human) (UniProt P04626)"}, "RPS6KA3 KD1 (human)": {"target": "RPS6KA3 KD1 (human) (UniProt P51812)", "sequence (P51812 whole entry, looked up)": "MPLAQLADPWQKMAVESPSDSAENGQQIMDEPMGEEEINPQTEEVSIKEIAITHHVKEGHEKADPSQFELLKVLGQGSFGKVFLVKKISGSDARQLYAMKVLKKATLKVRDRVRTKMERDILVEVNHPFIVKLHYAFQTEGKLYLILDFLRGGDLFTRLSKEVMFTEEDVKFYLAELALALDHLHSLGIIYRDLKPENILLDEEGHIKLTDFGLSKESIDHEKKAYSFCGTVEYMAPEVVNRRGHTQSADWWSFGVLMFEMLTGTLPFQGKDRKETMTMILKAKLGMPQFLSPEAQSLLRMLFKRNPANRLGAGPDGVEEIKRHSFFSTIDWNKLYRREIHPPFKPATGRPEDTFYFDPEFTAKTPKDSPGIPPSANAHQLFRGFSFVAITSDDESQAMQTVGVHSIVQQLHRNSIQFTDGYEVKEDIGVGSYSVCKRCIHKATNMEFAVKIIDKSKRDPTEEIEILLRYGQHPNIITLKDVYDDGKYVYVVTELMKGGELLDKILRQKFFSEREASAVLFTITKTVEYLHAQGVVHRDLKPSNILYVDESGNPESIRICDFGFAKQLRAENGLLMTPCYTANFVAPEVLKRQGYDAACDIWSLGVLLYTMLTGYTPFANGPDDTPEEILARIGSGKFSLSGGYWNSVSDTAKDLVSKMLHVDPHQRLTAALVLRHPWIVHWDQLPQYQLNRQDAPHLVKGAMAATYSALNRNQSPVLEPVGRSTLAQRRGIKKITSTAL"}, "FER (human)": {"target": "FER (human) (UniProt P16591)", "sequence (P16591 whole entry, looked up)": "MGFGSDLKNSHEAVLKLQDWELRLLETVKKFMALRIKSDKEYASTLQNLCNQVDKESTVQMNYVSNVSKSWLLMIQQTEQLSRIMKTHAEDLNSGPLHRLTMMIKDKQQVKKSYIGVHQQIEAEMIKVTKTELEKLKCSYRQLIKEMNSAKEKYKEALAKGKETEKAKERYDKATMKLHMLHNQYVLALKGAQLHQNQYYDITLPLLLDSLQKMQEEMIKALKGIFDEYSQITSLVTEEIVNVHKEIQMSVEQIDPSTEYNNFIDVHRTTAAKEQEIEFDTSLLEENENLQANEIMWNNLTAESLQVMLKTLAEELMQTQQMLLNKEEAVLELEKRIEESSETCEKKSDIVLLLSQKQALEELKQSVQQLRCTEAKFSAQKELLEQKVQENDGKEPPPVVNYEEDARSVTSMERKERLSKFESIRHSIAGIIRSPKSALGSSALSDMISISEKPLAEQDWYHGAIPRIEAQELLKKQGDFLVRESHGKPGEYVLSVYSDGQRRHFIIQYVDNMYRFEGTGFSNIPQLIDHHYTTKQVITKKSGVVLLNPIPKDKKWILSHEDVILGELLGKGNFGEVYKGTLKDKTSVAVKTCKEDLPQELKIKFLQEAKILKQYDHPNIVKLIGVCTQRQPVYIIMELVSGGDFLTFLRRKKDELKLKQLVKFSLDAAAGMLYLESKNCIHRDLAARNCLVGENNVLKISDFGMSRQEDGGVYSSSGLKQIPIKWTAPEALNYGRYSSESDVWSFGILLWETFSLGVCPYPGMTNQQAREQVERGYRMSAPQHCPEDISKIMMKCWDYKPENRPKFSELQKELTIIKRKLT"}, "IRAK3 (human)": {"target": "IRAK3 (human) (UniProt Q9Y616)", "sequence (Q9Y616 whole entry, looked up)": "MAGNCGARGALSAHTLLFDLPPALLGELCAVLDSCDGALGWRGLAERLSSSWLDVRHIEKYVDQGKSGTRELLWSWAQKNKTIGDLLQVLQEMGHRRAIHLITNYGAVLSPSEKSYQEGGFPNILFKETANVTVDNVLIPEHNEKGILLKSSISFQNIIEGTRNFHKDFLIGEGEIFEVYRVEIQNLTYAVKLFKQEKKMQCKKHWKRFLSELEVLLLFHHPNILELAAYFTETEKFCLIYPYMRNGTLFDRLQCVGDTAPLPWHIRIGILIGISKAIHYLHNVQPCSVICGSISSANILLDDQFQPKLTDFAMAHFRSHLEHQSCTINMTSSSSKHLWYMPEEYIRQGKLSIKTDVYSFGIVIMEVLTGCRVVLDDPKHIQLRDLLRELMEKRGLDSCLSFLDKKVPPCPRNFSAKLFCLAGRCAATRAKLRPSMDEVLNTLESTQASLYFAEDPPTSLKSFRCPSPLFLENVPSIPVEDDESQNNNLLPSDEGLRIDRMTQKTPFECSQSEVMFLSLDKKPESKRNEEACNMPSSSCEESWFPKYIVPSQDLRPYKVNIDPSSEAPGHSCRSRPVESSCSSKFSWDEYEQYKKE"}, "PRPF4B (human)": {"target": "PRPF4B (human) (UniProt Q13523)"}, "MKNK2 (human)": {"target": "MKNK2 (human) (UniProt Q9HBH9)"}, "CDKL1 (human)": {"target": "CDKL1 (human) (UniProt Q00532)", "sequence (Q00532 whole entry, looked up)": "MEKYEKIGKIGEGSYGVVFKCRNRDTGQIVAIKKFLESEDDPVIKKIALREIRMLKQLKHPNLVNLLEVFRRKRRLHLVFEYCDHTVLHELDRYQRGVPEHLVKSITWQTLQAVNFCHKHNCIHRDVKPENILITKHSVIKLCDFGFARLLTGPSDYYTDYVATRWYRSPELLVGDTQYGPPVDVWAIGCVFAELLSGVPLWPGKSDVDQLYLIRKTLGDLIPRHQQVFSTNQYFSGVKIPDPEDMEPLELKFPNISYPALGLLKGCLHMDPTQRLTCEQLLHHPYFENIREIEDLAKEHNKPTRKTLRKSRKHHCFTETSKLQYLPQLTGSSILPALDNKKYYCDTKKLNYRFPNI"}, "PRKCQ (human)": {"target": "PRKCQ (human) (UniProt Q04759)"}, "DSTYK (human)": {"target": "DSTYK (human) (UniProt Q6XUX3)"}, "PRKACB (human)": {"target": "PRKACB (human) (UniProt P22694)"}, "[5]": {"target": "TYK2 JH2 pseudokinase (human) (UniProt P29597)"}, "WEE2 (human)": {"target": "WEE2 (human) (UniProt P0C1S8)"}, "STK11 (human)": {"target": "STK11 (human) (UniProt Q15831)"}, "MARK4 (human)": {"target": "MARK4 (human) (UniProt Q96L34)"}},
  "data": [
    {"smiles": "Cc1cc([C@@H](C)Nc2ccccc2C(=O)O)c2nc(N3CCOCC3)cc(=O)n2c1", "values": [
      {"measurement": "kinase still bound, per cent of control", "setting": "BRSK1 (human)", "value": 100, "unit": "%"},
      {"measurement": "kinase still bound, per cent of control", "setting": "CAMK1G (human)", "value": 100, "unit": "%"},
      {"measurement": "kinase still bound, per cent of control", "setting": "CDK9 (human)", "value": 89, "unit": "%"},
      {"measurement": "kinase still bound, per cent of control", "setting": "PAK4 (human)", "value": 95, "unit": "%"},
      {"measurement": "kinase still bound, per cent of control", "setting": "AURKC (human)", "value": 91, "unit": "%"},
      {"measurement": "kinase still bound, per cent of control", "setting": "NEK9 (human)", "value": 94, "unit": "%"},
      {"measurement": "kinase still bound, per cent of control", "setting": "FGFR1 (human)", "value": 97, "unit": "%"},
      {"measurement": "kinase still bound, per cent of control", "setting": "PRKD1 (human)", "value": 100, "unit": "%"},
      {"measurement": "kinase still bound, per cent of control", "setting": "MAPKAPK2 (human)", "value": 95, "unit": "%"},
      {"measurement": "kinase still bound, per cent of control", "setting": "PHKG2 (human)", "value": 67, "unit": "%"},
      {"measurement": "kinase still bound, per cent of control", "setting": "[1]", "value": 100, "unit": "%"},
      {"measurement": "kinase still bound, per cent of control", "setting": "MAPK1 (human)", "value": 100, "unit": "%"},
      {"measurement": "kinase still bound, per cent of control", "setting": "KDR (human)", "value": 100, "unit": "%"},
      {"measurement": "kinase still bound, per cent of control", "setting": "CSNK1A1L (human)", "value": 94, "unit": "%"},
      {"measurement": "kinase still bound, per cent of control", "setting": "ULK3 (human)", "value": 100, "unit": "%"},
      {"measurement": "kinase still bound, per cent of control", "setting": "MAP3K3 (human)", "value": 77, "unit": "%"},
      {"measurement": "kinase still bound, per cent of control", "setting": "STK33 (human)", "value": 100, "unit": "%"},
      {"measurement": "kinase still bound, per cent of control", "setting": "MAPK7 (human)", "value": 100, "unit": "%"},
      {"measurement": "kinase still bound, per cent of control", "setting": "[2]", "value": 100, "unit": "%"},
      {"measurement": "kinase still bound, per cent of control", "setting": "[3]", "value": 100, "unit": "%"},
      {"measurement": "kinase still bound, per cent of control", "setting": "PRKACA (human)", "value": 100, "unit": "%"},
      {"measurement": "kinase still bound, per cent of control", "setting": "ERBB4 (human)", "value": 94, "unit": "%"},
      {"measurement": "kinase still bound, per cent of control", "setting": "IRAK4 (human)", "value": 100, "unit": "%"},
      {"measurement": "kinase still bound, per cent of control", "setting": "RIOK3 (human)", "value": 100, "unit": "%"},
      {"measurement": "kinase still bound, per cent of control", "setting": "PRKCH (human)", "value": 95, "unit": "%"},
      {"measurement": "kinase still bound, per cent of control", "setting": "[4]", "value": 100, "unit": "%"},
      {"measurement": "kinase still bound, per cent of control", "setting": "PRKG2 (human)", "value": 100, "unit": "%"},
      {"measurement": "kinase still bound, per cent of control", "setting": "ROCK1 (human)", "value": 90, "unit": "%"},
      {"measurement": "kinase still bound, per cent of control", "setting": "ERBB2 (human)", "value": 96, "unit": "%"},
      {"measurement": "kinase still bound, per cent of control", "setting": "RPS6KA3 KD1 (human)", "value": 100, "unit": "%"},
      {"measurement": "kinase still bound, per cent of control", "setting": "FER (human)", "value": 81, "unit": "%"},
      {"measurement": "kinase still bound, per cent of control", "setting": "IRAK3 (human)", "value": 75, "unit": "%"},
      {"measurement": "kinase still bound, per cent of control", "setting": "PRPF4B (human)", "value": 100, "unit": "%"},
      {"measurement": "kinase still bound, per cent of control", "setting": "MKNK2 (human)", "value": 100, "unit": "%"},
      {"measurement": "kinase still bound, per cent of control", "setting": "CDKL1 (human)", "value": 100, "unit": "%"},
      {"measurement": "kinase still bound, per cent of control", "setting": "PRKCQ (human)", "value": 100, "unit": "%"},
      {"measurement": "kinase still bound, per cent of control", "setting": "DSTYK (human)", "value": 90, "unit": "%"},
      {"measurement": "kinase still bound, per cent of control", "setting": "PRKACB (human)", "value": 62, "unit": "%"},
      {"measurement": "kinase still bound, per cent of control", "setting": "[5]", "value": 95, "unit": "%"},
      {"measurement": "kinase still bound, per cent of control", "setting": "WEE2 (human)", "value": 100, "unit": "%"},
      {"measurement": "kinase still bound, per cent of control", "setting": "STK11 (human)", "value": 97, "unit": "%"},
      {"measurement": "kinase still bound, per cent of control", "setting": "MARK4 (human)", "value": 100, "unit": "%"}
    ]}
  ]
}
